1 compound from patent publication US9724408B2, “Compositions and methods for activating stimulator of interferon gene-dependent signalling” (ADURO BIOTECH, INC., priority 2013, dated 2017) can be followed below.

For assay [1], the system named is CT26. Kind of assay: Re-challenge of surviving mice with CT26 tumor cells on the contralateral flank. The format is in vivo, BALB/c mice. On the procedure: To determine whether the synthetic derivative CDN molecules elicit durable and effective anti-tumor T-cell immunity, 6-8 week old female BALB/c mice (8 mice per group) were implanted with CT26 colon carcinoma cells (1×10^5 cells in 100 μL PBS). Mice were treated with Rp, Rp dithio cyclic [A(2′,5′)pA(3′,5′)p] (ML RR-CDA) compound ([…] in a total volume of 40 μL HBSS) or HBSS vehicle control, and tumor growth was monitored as per previous example. Mice were bled on day 18 post tumor implantation and PBMCs were isolated by Ficoll gradient (Miltenyi Biotech). 5×10^4 PBMCs were stimulated overnight in an IFNγ ELISpot assay with media alone (unstimulated), or with 1 μM of the endogenous H-2 L^d-restricted tumor rejection antigen AH1 peptide in the presence of 1×10^5 naïve splenocytes as feeder cells. IFN-γ ELISpot plates were developed and quantified using a CTL plate reader and ImmunoSpot software. On day 55 post tumor implantation, surviving mice and age-matched naïve control mice were implanted on the contralateral flank with either CT26 or 4T1 (both 1×10^5 cells in 100 μL PBS) tumor cells (4 mice per group), and monitored for tumor growth. […]

Assay [2] has as its system CT26 colon carcinoma cells. Kind of assay: Abscopal model, CT26 tumors on contralateral flanks, primary tumor injected. Particulars: 50 μg into the primary tumor only, three injections. The format is in vivo, BALB/c mice. An excerpt:
(§1) The STING-dependent induction of tumor-specific T cell immunity protects animals against subsequent challenge with the autologous tumor. It will be apparent to those skilled in the art that advanced cancer is metastatic, and that to be effective, therapies must inhibit outgrowth of distal masses. Treatment of one or selected lesions that inhibits tumor outgrowth of distal untreated tumor masses is known as an abscopal effect. To test whether IT injection of a selected tumor with synthetic CDN derivative molecules inhibited the tumor outgrowth of a distal untreated tumor, (A) CT26 colon carcinoma cells (1×10^5 cells in 100 μL PBS) and (B) 4T1 mammary carcinoma cells (1×10^5 cells in 100 μL PBS) were implanted subcutaneously on the contralateral flanks of 6-8 week old female BALB/c mice (8 mice per group). Treatments began when tumors reached a volume of approximately 75 mm^3, on day 13 post tumor implantation. The Rp, Rp dithio cyclic [A(2′,5′)pA(3′,5′)p] (ML RR-CDA) compound (50 μg in a total volume of 40 μL HBSS), or HBSS vehicle control, was administered by subcutaneous injection into the center of the primary (right side) tumor only using a 27 gauge needle. Injections were repeated every three days, for a total of three intratumoral injections.

Assay [3] relates to 4T1 mammary carcinoma cells. The assay can be described thus: Abscopal model, 4T1 tumors on contralateral flanks, primary tumor injected. In kind it is in vivo, BALB/c mice. Particulars: 50 μg into the primary tumor only, three injections.
Description: as §1

The test system of assay [4] is B16 melanoma cells. The assay can be described thus: Abscopal model, B16 flank tumor plus intravenous B16 lung colonization. In kind it is in vivo, C57BL/6 mice. Particulars: three injections. On the procedure: To determine whether the synthetic CDN derivative molecules promote abscopal anti-tumor immunity in an alternative tumor model and mouse genetic background, 6-8 week old female C57BL/6 mice (8 mice per group) were implanted with B16 melanoma cells (5×10^4 cells in 100 μL PBS) in the right flank. One week later mice were implanted intravenously with 1×10^5 B16 melanoma cells to colonize the lung, along with a group of naïve age-matched control mice. When the subcutaneous flank tumor reached approximately 75 mm^3 on day 13, mice were treated intratumorally with Rp, Rp dithio cyclic [A(2′,5′)pA(3′,5′)p] (ML RR-CDA) (50 μg in a total volume of 40 μL HBSS) or HBSS vehicle control, for three injections as per previous protocol. On day 28 post subcutaneous tumor implantation (day 21 post i.v. implantation), mice were euthanized and lungs were harvested and fixed (10% Neutral Buffered Formalin), and the number of lung tumor nodules counted using a dissecting microscope.

The subject of assay [5] is AH1 peptide. The assay can be described thus: AH1-specific IFN-γ ELISpot of PBMCs from treated CT26-bearing mice. In kind it is in vivo, BALB/c mice. As to conditions: day 18 post tumor implantation, 1 μM AH1 peptide, P=0.003, FIG. 21B. On the procedure: To determine whether the synthetic derivative CDN molecules elicit durable and effective anti-tumor T-cell immunity, 6-8 week old female BALB/c mice (8 mice per group) were implanted with CT26 colon carcinoma cells (1×10^5 cells in 100 μL PBS). Mice were treated with Rp, Rp dithio cyclic [A(2′,5′)pA(3′,5′)p] (ML RR-CDA) compound ([…] in a total volume of 40 μL HBSS) or HBSS vehicle control, and tumor growth was monitored as per previous example. Mice were bled on day 18 post tumor implantation and PBMCs were isolated by Ficoll gradient (Miltenyi Biotech). 5×10^4 PBMCs were stimulated overnight in an IFNγ ELISpot assay with media alone (unstimulated), or with 1 μM of the endogenous H-2 L^d-restricted tumor rejection antigen AH1 peptide in the presence of 1×10^5 naïve splenocytes as feeder cells. IFN-γ ELISpot plates were developed and quantified using a CTL plate reader and ImmunoSpot software. On day 55 post tumor implantation, surviving mice and age-matched naïve control mice were implanted on the contralateral flank with either CT26 or 4T1 (both 1×10^5 cells in 100 μL PBS) tumor cells (4 mice per group), and monitored for tumor growth.

Assay [6] deals with 4T1 mammary carcinoma cells. Kind of assay: 4T1 mammary carcinoma flank tumor model, intratumoral CDN. In kind it is in vivo, BALB/c mice. The procedure:
Either CT26 colon carcinoma cells (1×10^5 cells in 100 μL PBS) or 4T1 mammary carcinoma cells (1×10^5 cells in 100 μL PBS) were implanted subcutaneously on the flanks of 6-8 week old female BALB/c mice (8 mice per group). Treatments began when tumors reached a volume of approximately 75 mm^3, which was approximately day 14 post tumor implantation. The compounds Rp, Rp dithio cyclic [A(2′,5′)pA(3′,5′)p] (ML RR-CDA) or Rp, Rp dithio cyclic [G(2′,5′)pG(3′,5′)p] (ML RR-CDG) compounds (25 μg in a total volume of 40 μL HBSS), or HBSS vehicle control, and Rp, Rp dithio cyclic [A(2′,5′)pA(3′,5′)p] (ML RR-CDA) (50 μg in a total volume of 40 μL HBSS) or HBSS vehicle control, were administered by subcutaneous injection into the center of the tumor using a 27 gauge needle. Injections were repeated every three days, for a total of three intratumoral injections.
To determine whether CDN derivative molecules induce effective and durable anti-tumor immunity in an alternate tumor model, 6-8 week old female BALB/c mice (8 mice per group) were implanted with 4T1 mammary carcinoma cells (1×10^5 cells in 100 μL PBS). […] On day 35 post tumor implantation, surviving mice and age-matched naïve control mice were implanted on the contralateral flank with either CT26 or 4T1 (both 1×10^5 cells in 100 μL PBS) tumor cells (4 mice per group), and monitored for tumor growth.

Consider `Nc1ncnc2c1ncn2[C@@H]1O[C@@H]2COP(O)(=S)O[C@@H]3C(O)[C@@H](COP(O)(=S)O[C@H]2[C@H]1O)O[C@H]3n1cnc2c(N)ncnc21` (some centres unmarked) [ML RR-CDA, dithio-[RP, RP]-cyclic-[A(2′,5′)pA(3′,5′)p]], for which the “protection against CT26 re-challenge, survivors of 4T1 tumors” value in assay [1] (re-challenge on day 35 post tumor implantation, FIG. 22B) was “complete protection”. The “protection against CT26 re-challenge, survivors of CT26 tumors” value in assay [1] (re-challenge on day 55 post tumor implantation, FIG. 21C) is “complete protection against the same CT26 tumor type”. The “inhibition of the treated primary tumor, CT26” value in assay [2] (FIG. 23A) is “complete inhibition of the treated primary tumor”. The “outgrowth of the contralateral (untreated) tumor, CT26” value in assay [2] (P=0.0011, FIG. 23A) is reported as “significantly inhibited”. Also, the “inhibition of the treated primary tumor, 4T1” value in assay [3] (FIG. 23B) was “complete inhibition of the treated primary tumor”. Also, the “outgrowth of the contralateral (untreated) tumor, 4T1” value in assay [3] (P=0.0019, FIG. 23B) is “significantly inhibited”. For the same compound, the “growth of distal lung tumor nodules” value in assay [4] (50 μg into the flank tumor, lungs on day 28, FIG. 24B, 24C) was “significantly inhibited the growth of distal lung tumor nodules”. In assay [4] (50 μg intratumoral, P<0.001, FIG. 24A), the “tumor growth of the primary flank tumor” value is reported as “significantly inhibited tumor growth of the primary flank tumor”. In addition, in assay [5], the “IFN-γ production of PBMCs in response to AH1 peptide” value was “significantly higher IFN-γ in response to AH1 peptide stimulation, as compared to the HBSS-treated control group”. The “inhibition of tumor growth of established 4T1 mammary carcinomas” value in assay [6] (50 μg intratumoral, FIG. 22A) was “completely inhibited tumor growth of established 4T1 mammary carcinomas”. Moreover, the “inhibition of tumor growth of established 4T1 mammary tumors” value in assay [6] (intratumoral, every three days, three injections, 8 mice per group, FIG. 19C) is on record as “completely inhibited tumor growth of all established 4T1 mammary tumors”.
